pEC50, pIC50: −log10 of the molar value.
How the values were obtained:
MT4 = assay: Compound was tested for effective concentration against MT-4 cell line; type: functional, cell-based; conditions: Homo sapiens
[1] = biological target: Human immunodeficiency virus type 1 protease (Human immunodeficiency virus 1, UniProt Q72874); assay: In vitro inhibitory activity against HIV proteinase
C8166 = assay: Compound was tested for effective concentration against C8166 cell line; type: functional, cell-based; conditions: Homo sapiens

| Structure (SMILES) | pEC50 (MT4) | pIC50 [1] | pEC50 (C8166) |
| --- | --- | --- | --- |
| CC(C)(C)NC(=O)[C@@H]1C[C@@H]2CCCC[C@@H]2CN1C[C@H](O)CNC(=O)[C@@H]1N[C@@H](C(NC(=O)Cc2ccccc2)C(=O)NCc2ccccc2)SC1(C)C (stereo partly specified) | 4.87 | 6.80 |  |
| CC(C)(C)NC(=O)[C@@H]1CSCN1CC(O)CNC(=O)[C@@H]1N[C@@H](C(NC(=O)Cc2ccccc2)C(=O)NCc2ccccc2)SC1(C)C (stereo partly specified) |  | 6.35 |  |
| CC(C)(C)NC(=O)[C@@H]1C[C@@H]2CCCC[C@@H]2CN1C[C@@H](O)[C@H](Cc1ccccc1)NC(=O)[C@H](CC(N)=O)NC(=O)c1ccc2ccccc2n1 | 8.70 |  | 8.70 |
| CCO[C@@H]1C[C@@H](C(=O)NC(C)(C)C)N(C[C@H](O)CNC(=O)[C@@H]2N[C@@H](C(NC(=O)Cc3ccccc3)C(=O)NCc3ccccc3)SC2(C)C)C1 (stereo partly specified) |  | < 4.46 |  |
| CC(C)(C)NC(=O)C1N(C[C@@H](O)CNC(=O)[C@@H]2N[C@@H](C(NC(=O)Cc3ccccc3)C(=O)NCc3ccccc3)SC2(C)C)C(C)(C)SC1(C)C (stereo partly specified) |  | 6.72 |  |
| C[C@@H](C(=O)NC(C)(C)C)N(CC(O)CNC(=O)[C@@H]1N[C@@H](C(NC(=O)Cc2ccccc2)C(=O)NCc2ccccc2)SC1(C)C)CC1CCCCC1 (stereo partly specified) |  | 5.19 |  |
| CC(C)(C)NC(=O)[C@@H]1CCCCN1C[C@H](O)CNC(=O)[C@@H]1N[C@@H](C(NC(=O)Cc2ccccc2)C(=O)NCc2ccccc2)SC1(C)C (stereo partly specified) |  | < 5.66 |  |
| CC1(C)S[C@H](C(NC(=O)Cc2ccccc2)C(=O)NCc2ccccc2)N[C@H]1C(=O)N[C@H](Cc1ccccc1)[C@H](O)CC(=O)NCc1ccccc1 (stereo partly specified) |  | 5.34 |  |
| CCCCCCCNC(=O)C(NC(=O)Cc1ccccc1)[C@@H]1N[C@@H](C(=O)NCC(O)CN2C[C@H]3CCCC[C@H]3C[C@H]2C(=O)NC(C)(C)C)C(C)(C)S1 (stereo partly specified) | < 4.00 | 7.07 |  |
| CCNC(=O)C(NC(=O)Cc1ccccc1)[C@@H]1N[C@@H](C(=O)NCCNC(=O)[C@@H]2N[C@@H]([C@H](NC(=O)Cc3ccccc3)C(=O)NCC)SC2(C)C)C(C)(C)S1 (stereo partly specified) | 5.27 | 8.30 |  |
| CCO[C@@H]1C[C@@H](C(=O)NC(C)(C)C)N(C[C@@H](O)CNC(=O)[C@@H]2N[C@@H](C(NC(=O)Cc3ccccc3)C(=O)NCc3ccccc3)SC2(C)C)C1 (stereo partly specified) |  | < 4.46 |  |
| CC(C)(C)NC(=O)[C@@H]1C[C@@H](O)CN1CC(O)CNC(=O)[C@@H]1N[C@@H](C(NC(=O)Cc2ccccc2)C(=O)NCc2ccccc2)SC1(C)C (stereo partly specified) |  | 5.29 |  |
| CCNC(=O)C(NC(=O)Cc1ccccc1)[C@@H]1N[C@@H](C(=O)NCC(O)CN2C[C@H]3CCCC[C@H]3C[C@H]2C(=O)NC(C)(C)C)C(C)(C)S1 (stereo partly specified) | 6.37 | 7.51 | 6.13 |
| CN(C)c1ccc(CNC(=O)C(NC(=O)Cc2ccccc2)[C@@H]2N[C@@H](C(=O)NC[C@H](O)CN3C[C@H]4CCCC[C@H]4C[C@H]3C(=O)NC(C)(C)C)C(C)(C)S2)cc1 (stereo partly specified) | 6.28 | 7.59 | 6.57 |
| CC(C)(C)NC(=O)[C@@H]1C[C@@H]2CCCC[C@@H]2CN1CC(O)CNC(=O)[C@@H]1N[C@@H](C(NC(=O)Cc2ccccc2)C(=O)NCCNC(=O)CCCC[C@@H]2SC[C@@H]3NC(=O)N[C@@H]32)SC1(C)C (stereo partly specified) | 4.74 | 6.92 |  |
| CC(C)(C)NC(=O)[C@@H]1C[C@@H](OC(C)(C)C)CN1CC(O)CNC(=O)[C@@H]1N[C@@H](C(NC(=O)Cc2ccccc2)C(=O)NCc2ccccc2)SC1(C)C (stereo partly specified) |  | 5.80 |  |
| COC(=O)C(NC(=O)Cc1ccccc1)[C@@H]1N[C@@H](C(=O)NC[C@H](O)CN2C[C@H]3CCCC[C@H]3C[C@H]2C(=O)NC(C)(C)C)C(C)(C)S1 (stereo partly specified) | 5.41 | 7.27 |  |
| CC(C)(C)NC(=O)[C@@H]1C[C@H](OCc2ccccc2)CN1CC(O)CNC(=O)[C@@H]1N[C@@H](C(NC(=O)Cc2ccccc2)C(=O)NCc2ccccc2)SC1(C)C (stereo partly specified) |  | 6.19 |  |
| CC(C)(C)NC(=O)[C@H]1CN(C(=O)Oc2ccccc2)CCN1C[C@@H](O)CNC(=O)[C@@H]1N[C@@H](C(NC(=O)Cc2ccccc2)C(=O)NCc2ccccc2)SC1(C)C (stereo partly specified) |  | 7.09 |  |
| CC(C)(C)NC(=O)[C@@H]1C[C@@H]2CCCC[C@@H]2CN1C[C@H](O)CNC(=O)[C@@H]1N[C@@H](C(NC(=O)Cc2ccccc2)C(=O)NCC2CCCCC2)SC1(C)C (stereo partly specified) |  | 6.52 |  |
| CC(C)(C)NC(=O)[C@@H]1C[C@@H]2CCCC[C@@H]2CN1C[C@@H](O)CNC(=O)[C@@H]1N[C@@H](C(NC(=O)Cc2ccccc2)C(N)=O)SC1(C)C (stereo partly specified) | 6.23 | 7.64 | 6.92 |
| CC(C)(C)NC(=O)[C@@H]1CCCN1CC(O)CNC(=O)[C@@H]1N[C@@H](C(NC(=O)Cc2ccccc2)C(=O)NCc2ccccc2)SC1(C)C (stereo partly specified) [listing 1 of 2 here] |  | 5.51 |  |
| CC(C)(C)NC(=O)[C@H]1N(CC(O)CNC(=O)[C@@H]2N[C@@H]([C@H](NC(=O)Cc3ccccc3)C(=O)NCc3ccccc3)SC2(C)C)CSC1(C)C (stereo partly specified) |  | 7.68 |  |
| CC(C)(C)NC(=O)[C@@H]1CCCN1CC(O)CNC(=O)[C@@H]1N[C@@H](C(NC(=O)Cc2ccccc2)C(=O)NCc2ccccc2)SC1(C)C (stereo partly specified) [listing 2 of 2 here] |  | 5.82 |  |
| CC(C)(C)NC(=O)[C@@H]1CN(C(=O)Oc2ccccc2)CCN1C[C@@H](O)CNC(=O)[C@@H]1N[C@@H](C(NC(=O)Cc2ccccc2)C(=O)NCc2ccccc2)SC1(C)C (stereo partly specified) |  | 7.24 |  |
| CC(C)(C)NC(=O)[C@@H]1CCCCN1C[C@@H](O)CNC(=O)[C@@H]1N[C@@H](C(NC(=O)Cc2ccccc2)C(=O)NCc2ccccc2)SC1(C)C (stereo partly specified) |  | 5.19 |  |
| CCNC(=O)C(NC(=O)Cc1ccccc1)[C@@H]1N[C@@H](C(=O)NCC(O)CN(C)[C@@H](CC2CCCCC2)C(=O)NC(C)(C)C)C(C)(C)S1 (stereo partly specified) |  | 6.15 |  |
| CC(C)(C)NC(=O)[C@@H]1C[C@@H]2CCCC[C@@H]2CN1C[C@@H](O)CNC(=O)[C@@H]1N[C@@H](C(NC(=O)Cc2ccccc2)C(=O)NCc2ccccc2)SC1(C)C (stereo partly specified) | 6.46 | 7.64 | 7.30 |
| CC(C)(C)NC(=O)[C@@H]1C[C@@H]2CCCC[C@@H]2CN1CC(O)CNC(=O)[C@@H]1N[C@@H](C(NC(=O)Cc2ccccc2)C(=O)NCCNC(=O)OC(C)(C)C)SC1(C)C (stereo partly specified) | 7.28 | 6.80 | 7.00 |
| CC(C)(C)NC(=O)C1N(C[C@H](O)CNC(=O)[C@@H]2N[C@@H](C(NC(=O)Cc3ccccc3)C(=O)NCc3ccccc3)SC2(C)C)C(C)(C)SC1(C)C (stereo partly specified) |  | 7.03 |  |

Source: ChEMBL document CHEMBL1127387, “Synthesis and structure-activity relationships of a series of penicillin-derived HIV proteinase inhibitors: heterocyclic ring systems containing P1' and P2' substituents” (J Med Chem, 1994)
